Assays:
[1] = test system: human CD34+ cells; test: Aged normal bone marrow CD34+ engrafted NSG-SGM3 mice, flow cytometry of PB, SP, BM; assay type: in vivo, human cells in NSG-SGM3 mice; settings: 10 mg/kg, intravenously, twice a week for 2 weeks
From the text: Here, we established humanized mouse models using CD34^+ stem cells isolated from the peripheral blood of adult secondary AML (sAML) patients or bone marrow of normal-aged donors (63-79 years old).
FIG. 1: Rebecsinib treatment promotes human CD34^+ cells and spares CD45^+ cells Aged normal bone marrow (BM) samples were provided by Scripps Clinic La Jolla, CA. Normal human CD34^+ cells were freshly isolated with Microbeads (Miltenyi Biotech) and subsequently transduced with the ADAR1-NanoLuc reporter for 48 hours. Adult NSG-SGM3 mice (4-6 weeks) were intravenously transplanted with 100K ADAR1-NanoLuc reporter transduced CD34^+ cells. The mice were screened using the IVIS 200 imaging system and staining of peripheral blood with human CD45 monoclonal antibody. Mice with human CD45^+ cells >1% were included in the treatment cohort receiving Rebecsinib at a dose of 10 mg/kg, intravenously, twice a week for 2 weeks, with a total of 5 doses. After treatment, mice were sacrificed, and single cells were obtained from peripheral blood (PB), bone marrow (BM), and spleen (SP) for further analysis. A. IVIS 200 images of NSG-SGM3 mice intravenously transplanted with ADAR1-NanoLuc reporter transduced normal human CD34^+ cells at 18 weeks after transplantation. B. Flow cytometry gating strategies showing positive and negative controls. C.

[2] = test system: MF HPC; test: Viability of high-risk MF CD34+ cells by flow cytometry; assay type: cell-based, human; settings: 72 hr, compared with vehicle controls
Procedure: (FIG. 28B) Flow cytometry-based viable cell counts (5,000 events measured) in high-risk MF samples after in vitro treatment of primary CD34^+ cells with vehicle control (DMSO) or Rebecsinib (72 hr).
Human HS5 and HS27a^45 or mouse bone marrow cells lines SL (hSCF and hIL3) and M2 (hIL3 and hG-CSF) were irradiated and then mixed at a ratio of 1:1 and incubated overnight for attachment. CD34^+ were selected from high-risk MF and sAML primary samples using magnetic beads (Miltenyi Biotec, Germany). As a control, CD34^+ cells from aged normal bone marrow (aNBM), young normal BM (yNBM) and cord blood (All Cells Inc, Alameda, CA) mononuclear cells were utilized. To establish co-cultures, 10,000-15,000 CD34^+ cells were added to SLM2 stroma in 1 ml of MYELOCULT H5100™ (STEMCELL Technologies, Vancouver, Canada). Rebecsinib or DMSO control were added at the initiation of co-culture at indicated concentrations. After one week, cells that were both attached to stroma and floating were collected, resuspended in fresh media and plated in methylcellulose (MC) H4330™ (STEMCELL Technologies) in triplicate. After 2 weeks primary colonies (more than 40 cells) were counted and individual multilineage colonies were plucked, cells resuspended and re-plated again in fresh MC. Secondary colonies were counted after another 14 days. […]

[3] = test system: ADAR1, CD44-012, PTK2B-202, MCL1 transcripts; test: Transcripts in human CD34+ cells from treated engrafted sAML mice (qRT-PCR, RNA-seq); assay type: in vivo
Procedure: FIG. […]
For RNA editing analyses of whole transcriptome sequencing data, previous datasets were utilized from CD34^+ cells isolated from the spleens of sAML50261-engrafted mice treated once weekly with Rebecsinib in a dose-response assay (5 or 10 mg/kg),^14 along with CD34^+ cells harvested from mice that were serially transplanted with CD34+ cells from sAML50261-engrafted mice that had been treated twice weekly with Rebecsinib at 10 mg/kg (no further treatment was delivered to serial transplant recipients). Due to limiting number of cells remaining after treatment, cells were pooled from n=4 to 5 mice per condition for sequencing. RNA editing analysis was performed as previously described.^5
For quantitative analysis of splice isoform expression, RNA editing rates, and whole gene expression by qRT-PCR, cells or tissue fragments were harvested in RNA lysis buffer and total RNA was extracted using RNeasy mini or micro extraction kits (QIAGEN, Germantown, MD) following the manufacturer's protocol including a DNase incubation step to digest any trace genomic DNA present. Levels of ADAR1 variants and LSC-specific transcripts were quantified by qRT-PCR as previously described.^14 RNA-editing site-specific qRT-PCR (RESSqPCR) was performed for variants in AZIN1 transcripts.^53 Additional species-specific primers were also designed to quantify intron retention rates in cells treated with Rebecsinib as a biomarker of response to RNA splicing modulation. Specifically, for the two-step SYBR-green based assays, as previously described,^7,14,53 100-1000 ng of RNA were subjected to cDNA synthesis using the SUPERSCRIPT III™ (ThermoFisher Scientific) kit followed by qRT-PCR using SYBR GreenER (ThermoFisher Scientific) master mix according to the manufacturer's recommended procedures. qRT-PCR was performed using SYBR GREENER SUPER MIX™ (Life Technologies) on BioRad iQ5™, C1000 TOUCH™, or BioRad CFX384™ instruments. Human splice isoform-specific, RNA editing site-specific qPCR (RESSqPCR)^53. Primer sets that have not been previously published were designed and tested for efficiency followed by analyses in samples exposed to Rebecsinib, with species-specific HPRT primers used as controls. Samples with Ct<35 for the species-specific reference gene, HPRT, were included in analyses. Relative mRNA expression values were calculated using the 2^−ΔCT method, with normalization to untreated or vehicle-treated controls.^54
In humanized mouse models, sAML cells (CD34^+) from two unique […] patient samples that were splicing factor mutated or unmutated were utilized, including sAML50261 and sAML2008-5.^14 For in vivo efficacy and therapeutic index studies, sAML CD34^+ cells, or normal human cord blood-derived or aged bone marrow-derived HSPCs (CD34^+), were transplanted (50,000-200,000 cells per mouse) intrahepatically into neonatal Rag2^−/−γc^−/− mice, or intravenously into adult NSG-SGM3 mice (Jackson Laboratories, Bar Harbor, ME). A subset of experiments was performed with normal aged bone marrow cells that were transduced with the lentiviral ADAR1 nanoluc-GFP reporter vector prior to transplant. For transplantation into adult mice, animals were irradiated with ^137Cs at a dose of 150 cGy 24 hr before IV transplantation. After engraftment levels reached >1% human CD45^+ hematopoietic cells in the peripheral blood, animals were distributed among treatment groups for treatment with Rebecsinib or vehicle control essentially as previously described, with an increased dosing regimen of twice weekly (versus once weekly in prior studies)^14 and an optimized in vivo formulation (2% w/w EtOH, 5% w/v KOLLIPHOR HS™ 15 in 0.9% saline). […]

[4] = CD34+ cells, sAML50261 engrafted mice, vs vehicle

## CC[C@H](OC)[C@@H](C)[C@H]1O[C@@H]1[C@@H](O)[C@H](C)/C=C/C=C(\C)[C@H]1OC(=O)C[C@H](O)CC[C@@](C)(O)[C@@H](OC(C)=O)/C=C/[C@@H]1C [Rebecsinib]
[1]
  human CD45+ cells and differentiated cells (CD14+, CD3+, CD19+): preserves human CD45^+ cells and differentiated cells, including CD14^+ myeloid cells, and lymphoid cells such as CD3^+ T and CD19^+ B cells
[1]; bone marrow, p=0.046, Student's t-test
  human CD34+ cells in BM: significant CD34^+ increase
[1]; peripheral blood
  human CD34+ cells in PB: increased levels of human CD34^+ cells
[1]; spleen
  human CD34+ cells in SP: increased levels of human CD34^+ cells
[2]
  MF HPC viability: decreased MF HPC viability
[3]; CD34+ cells from bone marrows of treated mice
  MCL1-S isoform expression in human CD34+ cells: increase in the pro-apoptotic MCL1-S isoform expression
[3]; [4]
  CD44-012 splice isoform: significant reduction
  PTK2B-202 splice isoform: significant reduction
  total ADAR1 RNA expression by qRT-PCR: significant reduction in total ADAR1 RNA expression
[3]; mice treated with 5 or 10 mg/kg, RNA-seq
  MCL1 splice isoform switching: splice isoform switching of MCL1-L to MCL1-S
[3]; sAML50261 engrafted mice, Rebecsinib-treated samples
  ADAR1 transcript splicing (RNA-seq): unique retained intron regions and alternative splice site usage

Reference: US20260364072A1, “METHODS FOR PROMOTING EXPANSION OF HUMAN CD34+ CELLS IN VIVO AND FOR PROMOTING NEURAL REGENERATION” (THE REGENTS OF THE UNIVERSITY OF CALIFORNIA, priority 2023, published 2026)
